Source: patent publication US8653285B2 (Nippon Zoki Pharmaceutical Co., Ltd., priority 2008, dated 2014)
Structures can show the parent of a compound that is named as a salt. Where two headings read alike, the source gives them in different places.

Columns and labels:
[1] = target: human histamine H1 receptor (Homo sapiens, UniProt P35367); test: In vitro human histamine H1 receptor binding experiment ([3H]pyrilamine, HEK293A cells stably expressing the receptor); details: [3H]pyrilamine 3 nmol/L, room temperature 60 minutes
Description: Recombinant human histamine H1 receptor plasmid (prepared by Invitrogen) was transfected to HEK293A cells with Lipofectamine 2000 (Invitrogen). Cells stably expressing human histamine H1 receptor were screened with Geneticin (Invitrogen). The cells were continued to be cultured using a Dulbecco's Modified Eagle Medium containing 10% fetal bovine serum, 0.1 mmol/L MEM Non-Essential Amino Acids Solution, 2 mmol/L L-glutamine and 0.7 mg/mL Geneticin in a 5% CO2 incubator at 37° C. The cells stably expressing human histamine H1 receptor were prepared using 50 mmol/L Tris-HCl (pH 7.5) (hereinafter referred to as buffer) containing 0.1% bovine serum albumin, so as to have a concentration of 3×10^6 cells/mL, to give a cell sample preparation. Fifty microliters of the buffer, 50 μL of a test substance solution at various concentrations, and 50 μL of [^3H]pyrilamine solution (final concentration: 3 nmol/L) were added to each of the wells on the 96-well plate, and stirred, and 100 μL of the cell sample preparation was then added thereto (at a concentration of 3×10^5 cells/well) to initiate the reaction.
The cells were incubated at room temperature for 60 minutes, and then filtered on UniFilter GF/C plate (Packard) immersed in 0.5% polyethyleneimine using a cell harvester (IH-110, INNOTECH CORPORATION), to stop the reaction, and the plate was washed with the buffer. The plate after washing was sufficiently dried, and 20 μL of a scintillator (MaxiLight, manufactured by Hidex) was added thereto, and count per minute (cpm) was measured with a multi-labeled microplate reader (Plate Chameleo II, Hidex). The nonspecific binding was cpm in a case where 30 μmol/L pyrilamine was added. The experiments were carried out at n=3, and at least repeated 3 times.

cerebral H1 receptor = target: T1, cerebral H1 receptor (Mus musculus, UniProt P70174); test: Murine cerebral H1 receptor occupying content (ex vivo, 3H-pyrilamine binding in brain homogenate after oral administration)
T1 construct: The excised brain tissue was homogenized with Polytron (Kinematica); from tissue; host or cells: ICR mouse brain (entire brain except cerebellum and medulla oblongata), homogenate
Description: A 6-week-old ICR male mouse was previously fed for one week or more by allowing the mouse to take a solid feed and tap water ad libitum, under the environment setting of a temperature of 22° C., humidity of 55% and an artificial illumination of 12 hours a day, and the mouse was fasted overnight to be used for the experiment. A substance to be tested was dissolved with water for injection or suspended in 0.5% carboxymethyl cellulose solution, and the solution or suspension was orally administered to the mouse (dose volume: 0.1 mL/10 g body weight). After 1 hour from the oral administration, the mouse was decapitated, and the entire brain, except for cerebellum and medulla oblongatae, was rapidly excised. The excised brain tissue was homogenized with Polytron (Kinematica) in an ice-cooled 50 mmol/L phosphate buffered saline (pH 7.4, 100 mg/1.9 mL).
To a test tube for reaction (TPX-Tube) were added 180 μL of the brain homogenate, and 10 μL of ^3H-pyrilamine solution (final concentration: 2 nmol/L) and 10 μL of a non-labeled pyrilamine solution (final concentration: 200 μmol/L) or a 50 mmol/L phosphate buffered saline, and the mixture was incubated at room temperature for 45 minutes, and 2.0 mL of an ice-cooled, 50 mmol/L phosphate buffered saline was then added thereto to stop the reaction. The reaction mixture was filtered with a GF/B filter ([…]), and the filtrate was placed in a vial and dried overnight at 60 degrees. After drying, 10 mL of a scintillator (AL-1, toluene-based, DOJINDO LABORATORIES) was added to the product, and the disintegration per minute (dpm) was measured with a liquid scintillation counter (Packard, U.S.A., TRI-CARB 2700TR) (5 minutes/vial).

[2] = test system: histamine-induced vascular hyperpermeability; test: Rat histamine-induced vascular hyperpermeability reaction (in vivo antihistamine action); details: SD male rat, oral administration, histamine injected intracutaneously 1 hour after administration, leaked Evans Blue
Description: An SD male rat (SPF) of 180 g in weight was previously fed for one week or more by allowing the rat to take a solid feed and tap water ad libitum, under the environment setting of a temperature of 22° C., humidity of 55% and an artificial illumination of 12 hours a day (light phase 8 am to 8 pm), and the rat was fasted overnight to be used for the experiment. Histamine.dihydrochloride (hereinafter referred to as histamine) and Evans Blue were used by dissolving each in physiological saline upon use. A substance to be tested was dissolved in water for injection or suspended in 0.5% carboxymethyl cellulose sodium, and the rat was orally administered with the solution or suspension (dose volume: 5 mL/kg body weight). After 1 hour from the administration, the physiological saline and the histamine solution were each intracutaneously injected to two locations (20 μg/0.05 ml/location) each on a back part of the rat of which hair was sheared with an electric clipper while anesthetizing with an ether. A 0.5% Evans Blue-containing physiological saline was injected into the tail vein of the rat (1 mL/200 g body weight) immediately before the intracutaneous injection of the histamine.
After 30 minutes, the animal was decapitated, and exsanguinated, and the skin was removed to measure an amount of leaked pigment in the blue-stained portion. The measurement of the amount of leaked pigment was carried out as follows. Skins of the pigment leaking site were cut out at two locations, 1 mL of a 2 mol/L aqueous potassium hydroxide solution was added thereto in a test tube, and the test tube was allowed to stand overnight at 37° C. to dissolve. Thereafter, 6 mL of a 1:3 mixed solution of 0.67 mol/L phosphoric acid and acetone was added to the solution, and the mixture was vigorously shaken for 10 minutes. Thereafter, the mixture was filtered, and the absorbance of the filtrate at 620 nm was measured. The absorbance obtained from the two locations of the sites injected with physiological saline, as blank value, was used for a compensation. The amount of leaked pigment was calculated from the calibration curve of Evans Blue at 620 nm.

[3] = ICR male mouse, oral administration, brain excised after 1 hour, larger ID50 = lower brain transfer, read-out: ID50 (the source's name)

human histamine H1 receptor, sequence (P35367 whole entry): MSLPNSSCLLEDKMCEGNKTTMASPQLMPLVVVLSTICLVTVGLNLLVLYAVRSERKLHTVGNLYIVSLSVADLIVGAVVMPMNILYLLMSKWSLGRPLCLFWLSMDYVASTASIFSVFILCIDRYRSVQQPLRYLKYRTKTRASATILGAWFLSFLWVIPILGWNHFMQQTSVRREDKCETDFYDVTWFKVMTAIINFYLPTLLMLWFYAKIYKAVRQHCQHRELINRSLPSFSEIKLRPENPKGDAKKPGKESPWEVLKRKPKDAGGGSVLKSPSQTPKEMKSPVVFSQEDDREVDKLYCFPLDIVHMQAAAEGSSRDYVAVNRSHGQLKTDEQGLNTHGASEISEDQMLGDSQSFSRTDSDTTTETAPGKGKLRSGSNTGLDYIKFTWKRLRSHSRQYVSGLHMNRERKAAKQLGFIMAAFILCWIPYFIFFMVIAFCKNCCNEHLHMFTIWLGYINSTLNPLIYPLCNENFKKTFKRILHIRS
T1 sequence (P70174 whole entry): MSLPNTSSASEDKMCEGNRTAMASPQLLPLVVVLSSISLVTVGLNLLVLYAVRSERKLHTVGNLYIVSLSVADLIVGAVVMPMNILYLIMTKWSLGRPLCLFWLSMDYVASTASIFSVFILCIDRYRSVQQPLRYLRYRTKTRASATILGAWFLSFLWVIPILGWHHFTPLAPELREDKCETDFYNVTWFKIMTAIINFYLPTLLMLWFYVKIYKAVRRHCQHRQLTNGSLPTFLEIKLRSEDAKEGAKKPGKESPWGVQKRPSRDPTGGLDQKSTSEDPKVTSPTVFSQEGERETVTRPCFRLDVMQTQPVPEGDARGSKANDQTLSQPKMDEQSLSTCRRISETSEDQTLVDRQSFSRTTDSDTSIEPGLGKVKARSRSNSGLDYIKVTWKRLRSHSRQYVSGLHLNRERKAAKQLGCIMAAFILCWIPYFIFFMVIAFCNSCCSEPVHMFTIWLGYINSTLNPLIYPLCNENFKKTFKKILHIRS

IC50 [1]	Structure (SMILES)	other results
22.2 nM	CCOC(=O)c1ccc2c(c1)C(=CCCN(C)C)c1sccc1CO2 [Compound 3, Ethyl (E,Z)-4-(3-dimethylaminopropylidene)-4,10-dihydro-9-oxa-3-thiabenzo[f]azulene-6-carboxylate hydrochloride]	–
55.7 nM	CN(C)CCC=C1c2ccccc2CCc2sc(C(=O)NCCO)cc21 [Compound 9, (E,Z)-4-(3-Dimethylaminopropylidene)-9,10-dihydro-4H-1-thiabenzo[f]azulene-2-carboxylic-(2-hydroxyethyl)amide hydrochloride]	–
32.4 nM	CCOC(=O)/C=C/c1ccc2c(c1)/C(=C/CCN(C)C)c1sccc1CO2 [Compound 13, Ethyl (E,Z)-3-[4-(3-dimethylaminopropylidene)-4,10-dihydro-9-oxa-3-thiabenzo[f]azulen-6-yl]acrylate hydrochloride]	–
–	CN(C)CC/C=C1/c2ccccc2CCc2sc(C(=O)O)cc21 [Compound 16, (Z)-[4-(3-Dimethylaminopropylidene)-9,10-dihydro-4H-1-thiabenzo[f]azulen-2-yl]carboxylic acid]	ED50 (cerebral H1 receptor; [3]): 45.8 mg/kg; ED50 ([2]; read-out: ED50): 0.299 mg/kg
–	CN(C)CC/C=C1/c2ccccc2CCc2sc(CC(=O)O)cc21.Cl [Compound 18, (Z)-[4-(3-Dimethylaminopropylidene)-9,10-dihydro-4H-1-thiabenzo[f]azulen-2-yl]acetic acid hydrochloride]	ED50 (cerebral H1 receptor; mouse, po, 1 h, read-out: ID50): 2.1 mg/kg; ED50 ([2]; read-out: ED50): 0.063 mg/kg
–	CN(C)CC/C=C1/c2cc(CC(=O)O)ccc2OCc2ccsc21 [Compound 20, (Z)-[4-(3-Dimethylaminopropylidene)-4,10-dihydro-9-oxa-3-thiabenzo[f]azulen-6-yl]acetic acid]	ED50 (cerebral H1 receptor; [3]): 109 mg/kg; ED50 ([2]; read-out: ED50): 0.45 mg/kg
74.7 nM	CCOC(=O)C(C)(C)c1ccc2c(c1)C(=CCCN(C)C)c1sccc1CO2 [Compound 21, Ethyl (E,Z)-2-[4-(3-dimethylaminopropylidene)-4,10-dihydro-9-oxa-3-thiabenzo[f]azulen-6-yl]-2-methylpropionate hydrochloride]	–
74.6 nM	CN(C)CCC=C1c2ccccc2CCc2sc(C(C)(C)C(=O)O)cc21 [Compound 23, (E,Z)-2-[4-(3-Dimethylaminopropylidene)-9,10-dihydro-4H-1-thiabenzo[f]azulen-2-yl]-2-methylpropionic acid]	–
–	CNCC/C=C1\c2cc(C(C)(C)C(=O)O)ccc2OCc2ccsc21 [Compound 25, (E)-{2-Methyl-2-[4-(3-methylaminopropylidene)-4,10-dihydro-9-oxa-3-thiabenzo [f]azulen-6-yl]}propionic acid]	ID50 (cerebral H1 receptor; ICR male mouse, oral administration, brain excised after 1 hour, larger ID50 = lower brain transfer): >200 mg/kg; ED50 [2]: 5.70 mg/kg
–	O=C(O)Cc1ccc2c(c1)/C(=C/CCN1CCOCC1)c1sccc1CO2 [Compound 33, (Z)-{4-[3-(Morpholin-4-yl)propylidene]-4,10-dihydro-9-oxa-3-thiabenzo[f]azulen-6-yl}acetic acid]	ED50 (cerebral H1 receptor; [3]): 21.1 mg/kg; ED50 ([2]; read-out: ED50): ~0.3 mg/kg
–	O=C(O)Cc1ccc2c(c1)/C(=C/CCN1CCCCC1)c1sccc1CO2 [Compound 35, (Z)-{4-[3-(Piperidin-1-yl)propylidene]-4,10-dihydro-9-oxa-3-thiabenzo[f]azulen-6-yl}acetic acid]	ED50 (cerebral H1 receptor; [3]): 65.7 mg/kg; ED50 ([2]; read-out: ED50): ~0.1 mg/kg
99.8 nM	O=C(O)Cc1ccc2c(c1)/C(=C\CCNCc1ccccc1)c1sccc1CO2 [Compound 42, (E)-[4-(3-Benzylaminopropylidene)-4,10-dihydro-9-oxa-3-thiabenzo[f]azulen-6-yl]acetic acid]	–
10.9 nM	O=C(O)Cc1ccc2c(c1)/C(=C\CCN1CCN(c3ccccc3)CC1)c1sccc1CO2 [Compound 54, (E)-{4-[3-(4-Phenylpiperadin-1-yl)propylidene]-4,10-dihydro-9-oxa-3-thiabenzo[f]azulen-6-yl}acetic acid]	–
19.6 nM	O=C(O)Cc1ccc2c(c1)/C(=C/CCN1CCN(c3ccccc3)CC1)c1sccc1CO2 [Compound 55, (Z)-{4-[3-(4-Phenylpiperadin-1-yl)propylidene]-4,10-dihydro-9-oxa-3-thiabenzo[f]azulen-6-yl}acetic acid]	–
29 nM	CN(C)CC/C=C1\c2cc(CCC(=O)O)ccc2OCc2sccc21 [Compound 56, (E)-3-[4-(3-Dimethylaminopropylidene)-4,10-dihydro-9-oxa-1-thiabenzo[f]azulen-6-yl]propionic acid hydrochloride]	–
60.5 nM	O=C(O)Cc1ccc2c(c1)/C(=C\CCN1CCC(=O)CC1)c1sccc1CO2 [Compound 62, (E)-{4-[3-(4-Oxopiperidin-1-yl)propylidene]-4,10-dihydro-9-oxa-3-thiabenzo[f]azulen-6-yl}acetic acid]	–
8.56 nM	CN(C)CC/C=C1\c2cc(CC(=O)O)ccc2CCc2ccsc21 [Compound 64, (E)-[4-(3-Dimethylaminopropylidene)-9,10-dihydro-4H-3-thiabenzo[f]azulen-6-yl]acetic acid]	–
14 nM	CN(C)CC/C=C1/c2cc(CC(=O)O)ccc2CCc2ccsc21 [Compound 65, (Z)-[4-(3-Dimethylaminopropylidene)-9,10-dihydro-4H-3-thiabenzo[f]azulen-6-yl]acetic acid hydrochloride]	–
31.2 nM	O=C(O)Cc1ccc2c(c1)/C(=C\CCN1CCC(N3CCCCC3)CC1)c1sccc1CO2 [Compound 66, (E)-{4-[3-([1,4′]Bipiperidin-1′-yl)propylidene]-4,10-dihydro-9-oxa-3-thiabenzo[f]azulen-6-yl}acetic acid diformate]	–
45.2 nM	O=C(O)Cc1ccc2c(c1)C(=CCCN1CCSCC1)c1sccc1CO2 [Compound 68, (E,Z)-{4-[3-(Thiomorpholin-4-yl)propylidene]-4,10-dihydro-9-oxa-3-thiabenzo[f]azulen-6-yl}acetic acid]	–
53.8 nM	CC(C)(C(=O)O)c1cc2c(s1)CCc1ccccc1/C2=C\CCN1CCCC1 [Compound 69, (E,Z)-2-Methyl-2-{4-[3-(pyrrolidin-1-yl)propylidene]-9,10-dihydro-4H-1-thiabenzo[f]azulen-2-yl}propionic acid]	–
–	CN1CCC(=C2c3ccccc3CC(=O)c3sccc32)CC1 [Ketotifen, reference compound]	ED50 ([2]; read-out: ED50): 0.54 mg/kg

Structure (SMILES)	IC50 [1]	other results
CN(CC/C=C1\c2cc(CC(=O)O)ccc2OCc2ccsc21)Cc1ccccc1 [Compound 40]	19.1 nM	–
